What was measured:
S139A HCV NS3/4A PR = S139A HCV NS3/4A PR (Hepatitis C virus subtype 1a, UniProt A8DG50, A1066T/I1043Q/I1044E/L1039E/L1040E/L1047Q/S1165A, form not given); assay: Isothermal calorimetry; format: binding; settings: ITC, 37° C.
Description: (§1) Isothermal calorimetry (ITC) was carried out using the Auto-ITC 200 (Malvern), with a preliminary injection of 0.4 μl followed by 19 injections of 2 μl each, at 120 second intervals. Rotation of the solution was set to 750 rpm and temperature 37° C. […] The WT was run once; the S139A mutant was run in duplicate. The data were analysed with the ITC-PEAQ software (Malvern) using a one-site binding model and reference subtraction point-by-point.

WT HCV NS3/4A PR = WT HCV NS3/4A PR (Hepatitis C virus subtype 1a, UniProt A8DG50, A1066T/I1043Q/I1044E/L1039E/L1040E/L1047Q, form not given); assay: Isothermal calorimetry; format: binding; settings: ITC, 37° C.
Description: as §1

[1] = test system: IL-2 production by split CAR-expressing Jurkat cells; assay: Split chimeric antigen receptor activation assay; format: cell-based
Source text: A chimeric antigen receptor (CAR), a synthetic, genetically engineered version of a T-cell receptor, can direct the activation of immune cells in response to user-defined targets via target-specific recognition domains, e.g. a single chain variable antibody fragment (scFv). These multi-domain, synthetic proteins are typically constructed by fusion of the target recognition domain to a transmembrane domain, T-cell receptor co-stimulatory domain and a C-terminal CD3 zeta cytoplasmic activation domain. A split-CAR can be generated by expressing the target recognition/transmembrane/co-stimulatory domain and the CD3 zeta activation domain as two separate proteins. […]
Lentiviral particles encoding each split CAR were generated using the pPACKH1 HIV lentivector packaging kit (Systems Bioscience), according to the manufacturer's protocol. […] Split CAR-transduced Jurkat cell pools were FACS-sorted based on GFP fluorescence to achieve equivalent expression levels for both the FKBP12:FRB and HCV NS3/4A PR (S139A):PRSIM_23 CARs before functional testing. Activation of the split-CAR-expressing Jurkat cells can be measured by interleukin-2 (IL-2) production after stimulation of the CAR (Smith-Garvin, Koretzky, and Jordan 2009). […]

hESC line Sa121 = assay: PRSIM-based kill switch activity in ESC cells (confluency); format: cell-based, human
Description: The hESC line Sa121 (TakaraBio Europe) was also transduced with the lentiviral particles encoding the PRSIM-based kill switch fusion protein described above (SEQ ID 223). Cells (passage 19) were plated at 3.5×10^5 cells/cm^2 in the DEF-CS culture system, and the cells were transduced 30 h later. 24 h after transduction, puromycin selection was initiated and the antibiotic selection was maintained until a stable cell pool was achieved.
To test the induction of the kill switch in Sa121 ES cells, the cells were plated at 3.5×10^5/cm^2 two days before inducing kill switch activity by treating with simeprevir at concentrations from 10 nm to 1 uM. The cells were imaged using the Incucyte S3 (EssenBioscience) at intervals ranging from 10-20 min; kill switch efficiency was quantified by image analysis of confluency.

COc1ccc2c(O[C@@H]3C[C@H]4C(=O)N[C@]5(C(=O)NS(=O)(=O)C6CC6)C[C@H]5/C=C\CCCCN(C)C(=O)[C@@H]4C3)cc(-c3nc(C(C)C)cs3)nc2c1C [simeprevir] was tested, and the stoichiometry (S139A HCV NS3/4A PR) was about 0.6 Sim/NS3 binding sites, the ΔH (S139A HCV NS3/4A PR) was about 22 kcal/mol and the stoichiometry (WT HCV NS3/4A PR) was about 0.6 Sim/NS3 binding sites. For the same molecule, the ΔH (WT HCV NS3/4A PR) was about 22 kcal/mol, the “activation of CAR-expressing Jurkat cells (IL-2 production)” value ([1]; co-culture with antigen-negative A375 cells) was “no activation” and the “activation of CAR-expressing Jurkat cells (IL-2 production)” value ([1]; co-culture with antigen-positive HepG2 cells) was “dose-dependent activation”. The cell killing (hESC line Sa121; 10 nM simeprevir, 4 hours timeframe) was “maximal cell killing was not reached”, the cell killing (hESC line Sa121; 100 nM simeprevir, within 4 hours) was about 90% and the “onset of cell killing” value (hESC line Sa121; 1 μM simeprevir) was about 15 min. The “cells eliminated (cell confluency)” value (hESC line Sa121; 1 μM simeprevir, within 4 hours, kill switch-transduced Sa121) was “up to 95%” and the response to simeprevir (hESC line Sa121; wt (non-transduced) Sa121 cells) was “did not respond to treatment with simeprevir”.
